Assay results published in PubChem BioAssay AID504328 (The Scripps Research Institute Molecular Screening Center, 2011).
The source made the active and inactive calls.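 The calls were made as follows: active = EC50 at or below 10 µM; inactive = EC50 above 10 µM.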

Target: Caspase-3 (Homo sapiens) (UniProt P42574)
Test: activators of human procaspase-3 D3A mutant – biochemical, absorbance, PC-3 D3A mutant, counter-screen for dual procaspase-3/7 activator project, dose response (AID 504328)
Conditions: recombinant PC-3 D3A, Ac-DEVD-pNA absorbance 405 nm

Chain of Caspase-3 (Homo sapiens) (P42574 whole entry D9A/D28A/D175A): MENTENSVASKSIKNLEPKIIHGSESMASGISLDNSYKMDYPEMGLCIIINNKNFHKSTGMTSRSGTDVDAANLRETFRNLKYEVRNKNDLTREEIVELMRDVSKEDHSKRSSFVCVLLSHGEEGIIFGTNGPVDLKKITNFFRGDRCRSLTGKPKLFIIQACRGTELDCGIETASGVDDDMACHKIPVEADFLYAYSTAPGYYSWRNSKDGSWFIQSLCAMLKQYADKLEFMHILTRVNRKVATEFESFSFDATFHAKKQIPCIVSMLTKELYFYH

For CCOc1ccc(N=CC2=C(O)CC(c3ccco3)CC2=O)cc1 (stereo unspecified), which EC50 is on record?
Its EC50 is > 85.3 µM (inactive).
